Laboratory results from US6677308B1, “Meta-substituted phenylene sulphonamide derivatives” (G. D. Searle & Co., priority 1996, dated 2004).
pIC50: −log10 of the molar value. Counter-ions that a name gives are not always drawn. Like-named read-outs stand apart in the source and are kept apart here.

Experiments:
[1] = target: T1, Human vitronectin receptor (αvβ3) (Homo sapiens, UniProt P05106+P06756); assay: Vitronectin adhesion assay (solid phase receptor assay, competition with biotinylated vitronectin); assay type: binding
T1 construct: Human vitronectin receptor (αvβ3) was purified from human placenta as previously described; from tissue; host or cells: human placenta
Procedure: Vitronectin Adhesion Assay
Human vitronectin receptor (αvβ3) was purified from human placenta as previously described [Pytela et al., Methods in Enzymology, 144:475-489 (1987)]. Human vitronectin was purified from fresh frozen plasma as previously described [Yatohgo et al., Cell Structure and Function, 13:281-292 (1988)]. Biotinylated human vitronectin was prepared by coupling NHS-biotin from Pierce Chemical Company (Rockford, Ill.) to purified vitronectin as previously described [Charo et al., J. Biol. Chem., 266(3):1415-1421 (1991)]. Assay buffer, OPD substrate tablets, and RIA grade BSA were obtained from Sigma (St. Louis, Mo.). Anti-biotin antibody was obtained from Calbiochem (La Jolla, Calif.). Linbro microtiter plates were obtained from Flow Labs (McLean, Va.). ADP reagent was obtained from Sigma (St. Louis, Mo.).
(§1) Solid Phase Receptor Assays
This assay was essentially the same as previously reported [Niiya et al., Blood, 70:475-483 (1987)]. The purified human vitronectin receptor (αvβ3) was diluted from stock solutions to 1.0 μg/mL in Tris-buffered saline containing 1.0 mM Ca^++, Mg^++, and Mn^++, pH 7.4 (TBS^+++). The diluted receptor was immediately transferred to Linbro microtiter plates at 100 μL/well (100 ng receptor/well). The plates were sealed and incubated overnight at 4° C. to allow the receptor to bind to the wells. All remaining steps were at room temperature. The assay plates were emptied and 200 μL of 1% RIA grade BSA in TBS^+++ (TBS^+++/BSA) were added to block exposed plastic surfaces. Following a 2 hour incubation, the assay plates were washed with TBS^+++ using a 96 well plate washer. Logarithmic serial dilution of the test compound and controls were made starting at a stock concentration of 2 mM and using 2 nM biotinylated vitronectin in TBS^+++/BSA as the diluent. This premixing of labeled ligand with test (or control) ligand, and subsequent transfer of 50 μL aliquots to the assay plate was carried out with a CETUS Propette robot; the final concentration of the labeled ligand was 1 nM and the highest concentration of test compound was 1.0×10^−4 M. The competition occurred for two hours after which all wells were washed with a plate washer as before. Affinity purified horseradish peroxidase labeled goat anti-biotin antibody was diluted 1:3000 in TBS^+++/BSA and 125 μL were added to each well. After 30 minutes, the plates were washed and incubated with OPD/H2O2 substrate in 100 mM/L Citrate buffer, pH 5.0. The plate was read with a microtiter plate reader at a wavelength of 450 nm and when the maximum-binding control wells reached an absorbance of about 1.0, the final A450 were recorded for analysis. The data were analyzed using a macro written for use with the EXCEL™ spreadsheet program. The mean, standard deviation, and %CV were determined for duplicate concentrations. The mean A450 values were normalized to the mean of four maximum-binding controls (no competitor added) (B-MAX). The normalized values were subjected to a four parameter curve fit algorithm [Rodbard et al., Int.

[2] = target: T2, Human fibrinogen receptor (αIIbβ3) (Homo sapiens, UniProt P05106+P08514); assay: Purified IIb/IIIa receptor assay (solid phase receptor assay, competition with biotinylated vitronectin); assay type: binding; settings: purified human αIIbβ3 from platelets; 1 nM biotinylated vitronectin; highest concentration 1.0×10^−4 M
T2 construct: Human fibrinogen receptor (αIIbβ3) was purified from outdated platelets; from tissue; host or cells: outdated (human) platelets
Description: Purified IIb/IIIa Receptor Assay
Human fibrinogen receptor (αIIbβ3) was purified from outdated platelets. (Pytela, R., Pierschbacher, M. D., Argraves, S., Suzuki, S., and Rouslahti, E. “Arginine-Glycine-Aspartic acid adhesion receptors”, Methods in Enzymology 144(1987):475-489.) Human vitronectin was purified from fresh frozen plasma as described in Yatohgo, T., Izumi, M., Kashiwagi, H., and Hayashi, M., “Novel purification of vitronectin from human plasma by heparin affinity chromatography,” Cell Structure and Function 13(1988):281-292. Biotinylated human vitronectin was prepared by coupling NHS-biotin from Pierce Chemical Company (Rockford, Ill.) to purified vitronectin as previously described. (Charo, I. F., Nannizzi, L., Phillips, D. R., Hsu, M. A., Scarborough, R. M., “Inhibition of fibrinogen binding to GP IIb/IIIa by a GP IIIa peptide”, J. Biol. Chem. 266(3)(1991): 1415-1421.) Assay buffer, OPD substrate tablets, and RIA grade BSA were obtained from Sigma (St. Louis, Mo.). Anti-biotin antibody was obtained from Calbiochem (La Jolla, Calif.). Linbro microtiter plates were obtained from Flow Labs (McLean, Va.). ADP reagent was obtained from Sigma (St. Louis, Mo.).
as §1
This assay is essentially the same reported in Niiya, K., Hodson, E., Bader, R., Byers-Ward, V. Koziol, J. A., Plow, E. F. and Ruggeri, Z. M., “Increased surface expression of the membrane glycoprotein IIb/IIIa complex induced by platelet activation: Relationships to the binding of fibrinogen and platelet aggregation”, Blood 70(1987):475-483. The purified human fibrinogen receptor (αIIbβ3) was diluted from stock solutions to 1.0 μg/mL in Tris-buffered saline containing 1.0 mM Ca^++, Mg^++, and Mn^++, pH 7.4 (TBS^+++). The diluted receptor was immediately transferred to Linbro microtiter plates at 100 μL/well (100 ng receptor/well). The plates were sealed and incubated overnight at 4° C. to allow the receptor to bind to the wells. All remaining steps were at room temperature. The assay plates were emptied and 200 μL of 1% RIA grade BSA in TBS^+++ (TBS^+++/BSA) were added to block exposed plastic surfaces. Following a 2 hour incubation, the assay plates were washed with TBS^+++ using a 96 well plate washer. Logarithmic serial dilution of the test compound and controls were made starting at a stock concentration of 2 mM and using 2 nM biotinylated vitronectin in TBS^+++/BSA as the diluent. This premixing of labeled ligand with test (or control) ligand, and subsequent transfer of 50 μL aliquots to the assay plate was carried out with a CETUS Propette robot; the final concentration of the labeled ligand was 1 nM and the highest concentration of test compound was 1.0×10^−4 M. The competition occurred for two hours after which all wells were washed with a plate washer as before. Affinity purified horseradish peroxidase labeled goat anti-biotin antibody was diluted 1:3000 in TBS^+++/BSA and 125 μL were added to each well. After 30 minutes, the plates were washed and incubated with […] substrate in 100 mM/L citrate buffer, pH 5.0. The plate was read with a microtiter plate reader at a wavelength of 450 nm and when the maximum-binding control wells reached an absorbance of about 1.0, the final A450 were recorded for analysis. The data were analyzed using a macro written for use with the EXCEL™ spreadsheet program. The mean, standard deviation, and %CV were determined for duplicate concentrations. The mean A450 values were normalized to the mean of four maximum-binding controls (no competitor added) (B-MAX). The normalized values were subjected to a four parameter curve fit algorithm, [Robard et al., Int.

[3] = tested on: Human platelet rich plasma; assay: Human platelet rich plasma assay (ADP induced platelet aggregation); assay type: cell-based; settings: concentration of half-maximal inhibition, read-out: Human PRP
Procedure: Human Platelet Rich Plasma Assays
Healthy aspirin free donors were selected from a pool of volunteers. The harvesting of platelet rich plasma and subsequent ADP induced platelet aggregation assays were performed as described in Zucker, M. B., “Platelet Aggregation Measured by the Photometric Method”, Methods in Enzymology 169(1989):117-133. Standard venipuncture techniques using a butterfly allowed the withdrawal of 45 mL of whole blood into a 60 mL syringe containing 5 mL of 3.8% trisodium citrate. Following thorough mixing in the syringe, the anti-coagulated whole blood was transferred to a 50 mL conical polyethylene tube. The blood was centrifuged at room temperature for 12 minutes at 200×g to sediment non-platelet cells. Platelet rich plasma was removed to a polyethylene tube and stored at room temperature until used. Platelet poor plasma was obtained from a second centrifugation of the remaining blood at 2000×g for 15 minutes. Platelet counts are typically 300,000 to 500,000 per microliter. Platelet rich plasma (0.45 mL) was aliquoted into siliconized cuvettes and stirred (1100 rpm) at 37° C. for 1 minute prior to adding 50 uL of pre-diluted test compound. After 1 minute of mixing, aggregation was initiated by the addition of 50 uL of 200 uM ADP. Aggregation was recorded for 3 minutes in a Payton dual channel aggregometer (Payton Scientific, Buffalo, N.Y.). […]

[4] = purified human αvβ3 from placenta, 1 nM biotinylated vitronectin, highest concentration 1.0×10^−4 M, read-out: AvB3 IC50

Compound	pIC50 [1, 4]	pIC50 [2]	pIC50 ([1]; positive control included on each plate, read-out: IC50 (αvβ3 antagonist, positive control))	pIC50 [3]
C#C[C@H](CC(=O)O)NS(=O)(=O)c1cccc(NC(=O)c2cccc(NC3=NCCN3)c2)c1 [Example 7, 3S-[[[3-[[[3-[(4,5-Dihydro-1H-imidazol-2-yl)amino]-phenyl]carbonyl]amino]phenyl]sulfonyl]amino]-4-pentynoic Acid, Trifluoroacetate Salt]	7.82	6.38	–	–
β-[[2-[[5-[(aminoiminomethyl)amino]-1-oxopentyl]amino]-1-oxoethyl]amino]-3-pyridinepropanoic acid [reference compound]	–	–	8.00 to 8.52	–
C#CC(CC(=O)O)NS(=O)(=O)c1cccc(NC(=O)c2cccc(NC(=N)N)c2)c1 (stereo not drawn) [Example 8, 3-[[[3-[[[3-[(Aminoiminomethyl)amino]phenyl]-carbonyl]amino]phenyl]sulfonyl]amino]-4-pentynoic Acid, Trifluoroacetate Salt]	7.95	7.42	–	–
N=C(N)Nc1cccc(S(=O)(=O)Nc2cccc(S(=O)(=O)NC(CC(=O)O)c3ccccc3)c2)c1 (stereo not drawn) [Example 9, β-[[[3-[[[3-[(Aminoiminomethyl)amino]phenyl]-sulfonyl]amino]phenyl]sulfonyl]amino]phenyl-propanoic Acid, Trifluoroacetate Salt]	7.53	7.03	–	–
N=C(N)Nc1cccc(C(=O)Nc2cccc(S(=O)(=O)NC(CC(=O)O)c3cccnc3)c2)c1 (stereo not drawn) [Example 5, β-[[[3-[[[3-[(Aminoiminomethyl)amino]phenyl]-carbonyl]amino]phenyl]sulfonyl]amino]pyridine-3-propanoic Acid, tris(Trifluoroacetate) Salt]	8.33	7.61	–	–
C=CC(CC(=O)O)NS(=O)(=O)c1cccc(NC(=O)c2cccc(NC(=N)N)c2)c1 (racemic) [Example 3, (±) 3-[[[3-[[[3-[(Aminoiminomethyl)amino]phenyl]-carbonyl]amino]phenyl]sulfonyl]amino]-4-pentenoic Acid, Trifluoroacetate Salt]	8.27	7.94	–	–
N=C(N)Nc1cccc(C(=O)Nc2cccc(S(=O)(=O)NC(CC(=O)O)c3cc(Cl)cc(Cl)c3)c2)c1 (racemic) [Example 4, (±) β-[[[3-[[[3-[(Aminoiminomethyl)amino]phenyl]-carbonyl]amino]phenyl]sulfonyl]amino]-3,5-dichlorobenzene Propanoic Acid, Trifluoroacetate Salt]	6.18	6.01	–	–
N=C(N)Nc1cccc(C(=O)Nc2cccc(S(=O)(=O)N3CCCCC3CC(=O)O)c2)c1 (stereo not drawn) [Example 6, 1-[[3-[[[3-[(Aminoiminomethyl)amino]phenyl]carbonyl]-amino]phenyl]sulfonyl]piperidine-2-acetic Acid, Trifluoroacetate Salt]	6.74	5.41	–	–
N=C(N)Nc1cccc(C(=O)Nc2cccc(S(=O)(=O)NC(CC(=O)O)c3ccccc3)c2)c1 (stereo not drawn) [Example 1, β-[[[3-[[[3-[(Aminoiminomethyl)amino]phenyl]carbonyl]amino]phenyl]sulfonyl]amino]-benzenepropanoic Acid, Trifluoroacetate Salt]	8.78	7.95	–	< 3.70
